Source: US20240228474A1, “ANTIBACTERIAL COMPOUND” (DISCUVA LIMITED, priority 2021, published 2024)

Assays:
[1] = Volume of distribution (Vss) from mouse plasma profiles; format: in vivo; conditions: mice, 5 mg/kg IV bolus, 2 compartment model
Experimental: The volume of distribution (Vss) of compound (I) and comparative compounds (II) and (III) was determined from analysis of plasma concentration time profiles obtained from rodent species (mice), following 5 mg/kg IV bolus administration respectively. The volume of distribution was obtained by analysing the rodent plasma profiles for compound (I) and comparative compounds (II) and (III) using a 2 compartment IV bolus model in PK Solver (Excel). The volume of distribution data for compound (I) and comparative compound (II) was collected in separate experiments carried out on different days, and compared in Table 6.

[2] = system: Proteus mirabilis (DSM 4479); experiment: MIC by broth microdilution (CLSI); format: cell-based; conditions: DSM4479
Experimental: Minimum Inhibitory Concentrations (MICs) versus Escherichia coli (NCTC 13441) and Klebsiella pneumoniae (NCTC 13438) (planktonic bacteria) were determined by the broth microdilution procedure in line with the guidelines of the Clinical and Laboratory Standards Institute (Clinical and Laboratory Standards Institute. Methods for Dilution Antimicrobial Susceptibility Tests for Bacteria That Grow Aerobically, Approved Standard-Eleventh Edition, CLSI document M07, 11 Jan. 2018). The broth dilution method involved a two-fold serial dilution of compounds in 96-well microtitre plates, giving a final concentration range of 0.39-200 μM and a maximum final concentration of 2% DMSO. The bacterial strains tested were Escherichia coli (NCTC 13441) and Klebsiella pneumoniae (NCTC 13438). Strains were grown in cation-adjusted Müller-Hinton broth or on Luria Bertani agar at 37° C. in an ambient atmosphere. The MIC (μM) was determined as the lowest concentration of compound that inhibits growth following a 20-24 hour incubation period.
Minimum Inhibitory Concentrations (MICs) versus Proteus mirabilis (DSM 4479) were determined for compound (I) and comparative compounds (II) and (III) using the methodology outlined above.

[3] = system: E. coli UT189; experiment: Murine urinary tract infection proof-of-concept study, IV bolus; format: in vivo; conditions: IV bolus 20 mg/kg TID over 3 days, 96 h after initial infection
Experimental: Compound (I) and comparative compound (III) were evaluated in proof-of-concept studies in murine models for the treatment of a respiratory infection with Gram-negative bacteria of the order Enterobacterales, a bacteraemia or bloodstream infection with Gram-negative bacteria of the order Enterobacterales, and a urinary tract infection with Gram-negative bacteria of the order Enterobacterales. Each dot, triangle or square indicator represents a single mouse. LOD refers to the limit of detection of the bacteria. […] Each of the proof-of-concept studies was carried out separately. By vehicle is meant pharmaceutically acceptable carrier or excipient. For the proof-of-concept study for the treatment of a urinary tract infection with Enterobacterales, female C3H/HeN mice were infected with E. coli UT189. Twenty-four hours after infection (‘pre-treatment’ in FIGS. 4a-c), a vehicle (20% hydroxypropyl β cyclodextrin) containing no compound (I) or comparative compound (III), or a vehicle (20% hydroxypropyl β cyclodextrin) containing compound (I) or comparative compound (III), was administered by IV bolus of 20 mg/kg, TID (8 hrs apart), over 3 days.

[4] = system: E. coli BAA-2469 (NDM-1 positive); experiment: Murine bacteraemia / bloodstream infection proof-of-concept study, IV bolus; format: in vivo; conditions: single dose IV bolus 20 mg/kg, 9 h from initial infection
Experimental: Compound (I) and comparative compound (III) were evaluated in proof-of-concept studies in murine models for the treatment of a respiratory infection with Gram-negative bacteria of the order Enterobacterales, a bacteraemia or bloodstream infection with Gram-negative bacteria of the order Enterobacterales, and a urinary tract infection with Gram-negative bacteria of the order Enterobacterales. Each dot, triangle or square indicator represents a single mouse. LOD refers to the limit of detection of the bacteria. […] Each of the proof-of-concept studies was carried out separately. By vehicle is meant pharmaceutically acceptable carrier or excipient.
For the proof-of-concept study for the treatment of a bacteraemia or bloodstream infection with Gram-negative bacteria of the order Enterobacterales, CD-1 mice were infected with human urine isolate E. coli BAA-2469 (NDM-1 positive). One hour after infection (‘pre-treatment’ in FIG. 3), a vehicle (20% hydroxypropyl β cyclodextrin) containing no compound (I) or comparative compound (III), or a vehicle (20% hydroxypropyl β cyclodextrin) containing compound (I) or comparative compound (III), was administered by as a single dose IV bolus at 20 mg/kg.

[5] = system: Klebsiella pneumoniae ATCC 43816; experiment: Murine respiratory infection proof-of-concept study, IV bolus; format: in vivo; conditions: 26 h from initial infection
Experimental: Compound (I) and comparative compound (III) were evaluated in proof-of-concept studies in murine models for the treatment of a respiratory infection with Gram-negative bacteria of the order Enterobacterales, a bacteraemia or bloodstream infection with Gram-negative bacteria of the order Enterobacterales, and a urinary tract infection with Gram-negative bacteria of the order Enterobacterales. Each dot, triangle or square indicator represents a single mouse. LOD refers to the limit of detection of the bacteria. […] Each of the proof-of-concept studies was carried out separately. By vehicle is meant pharmaceutically acceptable carrier or excipient. For the proof-of-concept study for the treatment of a respiratory infection caused or exacerbated by Gram-negative bacteria of the order Enterobacterales, CD-1 mice were infected with Klebsiella pneumoniae ATCC 43816. Two hours after infection (‘pre-treatment’ in FIG. 2), a vehicle (20% hydroxypropyl β cyclodextrin) containing no compound (I) or comparative compound (III), or a vehicle (20% hydroxypropyl β cyclodextrin) containing compound (I) or comparative compound (III), was administered by IV bolus at 20 mg/kg, TID (8 hrs apart), over one day.

[6] = Lipophilicity, Log P measured with SiriusT3 (octanol titration); format: physicochemical; conditions: octanol / aqueous sample solution
Experimental: Log P values of compound (I) and comparative compound (III) were measured using the SiriusT3 instrument from Sirius Analytical by performing an acid-based titration and measuring the shift in pKa when the sample solution is in contact with an immiscible solvent (octanol). Log P for the comparative compound (II) was calculated using Marvin (physico-chemical calculation software). The lipophilicity data for compound (I) and comparative compounds (II) and (III) was collected in separate experiments carried out on different days, and compared in Table 5.

Row | Structure (SMILES) | Vd [1] [L/kg] | MIC [2] [µM] | reduction of bacterial burden in the bladder compared to vehicle [3] [log] | reduction of bacterial burden in the urine compared to vehicle ([3]; female C3H/HeN mice) [log] | reduction of bacterial burden in the blood compared to vehicle ([4]; CD-1 mice) [log] | bacterial burden (CFU) in the blood at end of study [4] | reduction of bacterial burden in the lung compared to vehicle ([5]; CD-1 mice, IV bolus 20 mg/kg TID over one day) [log] | CFU value in lung relative to stasis level ([5]; IV bolus 20 mg/kg TID) | logP [6]
1 | Cc1cc(-c2[nH]c(N)nc2-c2ccc3c(c2)N(C(=O)CN)CCO3)ccn1 [Comparative Compound (II)] | 7.7 | > 200 |  |  |  |  |  |  | 
2 | Cc1cnccc1-c1[nH]c(N)nc1-c1ccc2c(c1)N(C(=O)CN)CCO2 [Comparative Compound (III), reference compound] | 7.9 | > 200 | 3.71 | 3.36 | 4.86 | remained on or above the stasis level | 4.16 | remained relatively close to the stasis level | 1.03
